Assay results: PubChem BioAssay (NCI)
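Cells were grown in 96-well plates and exposed to each compound for 48 hours at five concentrations; endpoints were interpolated linearly between bracketing concentrations, or set to the highest concentration if not reached. TGI: concentration producing complete growth inhibition.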

Legend:
Experiment in all cases: growth of human tumour cells (NCI), 48 h
DMS 114 small cell lung = tested on: DMS 114 small cell lung
EKVX NSCLC = tested on: EKVX NSCLC
KM20L2 colon = tested on: KM20L2 colon
LXFL 529 NSCLC = tested on: LXFL 529 NSCLC
M14 melanoma = tested on: M14 melanoma
SK-OV-3 ovarian = tested on: SK-OV-3 ovarian
SW-620 colon = tested on: SW-620 colon
XF 498 CNS = tested on: XF 498 CNS
DLD-1 colon = tested on: DLD-1 colon
HOP-18 NSCLC = tested on: HOP-18 NSCLC
OVCAR-4 ovarian = tested on: OVCAR-4 ovarian
MCF7 breast = tested on: MCF7 breast

SMILES | TGI (DMS 114 small cell lung) [µM] | TGI (EKVX NSCLC) [µM] | TGI (KM20L2 colon) [µM] | TGI (LXFL 529 NSCLC) [µM] | TGI (M14 melanoma) [µM] | TGI (SK-OV-3 ovarian) [µM] | TGI (SW-620 colon) [µM] | TGI (XF 498 CNS) [µM] | TGI (DLD-1 colon) [µM] | TGI (HOP-18 NSCLC) [µM] | TGI (OVCAR-4 ovarian) [µM] | TGI (MCF7 breast) [µM]
N#CCCC(C#N)(C#N)CCC#N | > 100 | > 100 | > 100 | > 100 | > 100 | > 100 | > 100 | > 100 |  |  |  | 
CCOC(=O)/C(C1=NCCN1C)=C(\O)c1ccccc1 |  | > 100 | > 100 | > 100 | > 100 |  | > 100 | > 100 | > 100 | > 100 | > 100 | 
c1cc2c(cc1C1OCC3C(c4ccc5c(c4)OCO5)OCC13)OCO2 (configuration not stated) | > 100 | > 100 | > 100 | > 100 | > 100 | > 100 | > 100 | 99.8 | > 100 | > 100 | > 100 | 
C#CN1C(=O)c2c(c(-c3ccccc3)c(-c3ccc(Oc4ccc(-c5c(-c6ccccc6)c6c(c(-c7ccccc7)c5-c5ccccc5)C(=O)N(C#C)C6=O)cc4)cc3)c(-c3ccccc3)c2-c2ccccc2)C1=O | > 100 | > 100 | > 100 |  | > 100 |  | > 100 | 72.8 | > 100 |  | > 100 | 
O=C(O)C12C3CCC(C3)C1(C(=O)O)C1CCC2C1 (configuration not stated) | > 100 | > 100 | > 100 | > 100 | > 100 | > 100 | 34.2 | > 100 | 64.1 | > 100 |  | 
O=C(c1ccccc1)n1cc(/C=C/[N+](=O)[O-])c2ccccc21 | 38 | > 100 |  | 35.1 | 41 | > 100 | 38.1 | 78.5 | 33.5 | > 100 | 77.3 | 
COc1ccc(S(=O)(=O)N/N=C(\C)CN2C(=O)c3ccccc3C2=O)cc1OC | > 100 | > 100 | > 100 | > 100 | > 100 | > 100 | > 100 | > 100 | > 100 | > 100 | > 100 | 
O=c1[nH]c(=O)n([C@H]2C[C@@H](CO)[C@@H](O)C2)cc1I | > 100 | > 100 | > 100 | > 100 | > 100 | > 100 | > 100 |  | > 100 | > 100 | > 100 | 
COP12(OC)NC(=O)OC1(C(F)(F)F)c1ccccc1O2 (configuration not stated) | > 100 |  |  | > 100 | > 100 | > 100 |  | > 100 | > 100 | > 100 | > 100 | 
COc1cc(C2C(C(=O)NCc3ccccc3)=C(C)NC(C)=C2C(=O)NCc2ccccc2)ccc1O | > 100 | > 100 | > 100 | > 100 | > 100 |  | > 100 | > 100 |  |  | > 100 | 
O=C1CCC(=O)c2ccccc2N1 | > 100 | > 100 | > 100 | > 100 | > 100 | > 100 | > 100 | > 100 | > 100 | > 100 | > 100 | 
CN1CCS(=O)(=O)NC(Cc2ccccc2)C(=O)N2CCCC2C1=O (configuration not stated) | > 100 | > 100 | > 100 | > 100 |  | > 100 | > 100 | > 100 | > 100 | > 100 | > 100 | 
O=C1C(Cl)C(c2ccc(O)cc2)N1n1cnc2ccccc2c1=O (configuration not stated) | > 81 | > 100 | > 100 | 39.5 | 96.8 | > 100 | 47.8 | > 66.8 | 55.3 | > 100 | > 94 | 
CN(C)CC1(Cc2ccccc2)CC/C(=C\c2ccccc2)C1=O (configuration not stated) | 80.1 |  | 35 | > 100 | > 100 |  | 60.3 | > 100 | > 100 | > 100 | > 100 | 
NNC(=O)/C(NC(=O)c1ccccc1)=C(\N)c1cccc([N+](=O)[O-])c1 | > 100 | > 100 |  | > 100 | > 100 | > 100 | > 100 | > 100 | > 100 | > 100 | > 100 | 
COC(=O)C(=O)C(C(=O)OC)C(=O)C(=O)Nc1cc(Cl)c(C)cc1S(=O)(=O)O (configuration not stated) | > 100 | > 100 | > 100 | > 100 | > 100 | > 100 | > 100 | > 100 | > 100 | > 100 | > 100 | 
c1ccc2cc(C3NCCc4[nH]cnc43)ccc2c1 (configuration not stated) | > 100 |  | > 100 | > 100 | > 100 | > 100 | > 100 |  | > 100 | > 100 | > 100 | 
CN1CCCS/C1=C1/SC(=S)N(c2ccccc2)C1=O | > 100 | > 100 | > 100 | > 100 | > 100 | > 100 | > 100 | > 100 | > 100 | > 100 | > 100 | 
N#Cc1ccc(C2OCC3CC=CCC3CO2)cc1 (configuration not stated) | > 100 | > 100 | > 100 | > 100 | > 100 | > 100 | > 100 | > 100 | > 100 | > 100 | > 100 | 
COc1cc2ccnc(C#N)c2cc1OCc1ccccc1 |  | > 100 | > 100 | > 100 | > 100 |  | > 100 | > 100 | > 100 | > 100 | > 100 | 
O=C1c2ccccc2C(=O)c2c1oc1cc(O)c(Cl)cc21 | 6.1 | 29.6 | 6.79 | > 46.3 | 6.88 | 40 | 24.9 | 20.2 | 19.5 | 6.79 | 23.4 | 25.2
COc1ccc(OC(=O)N2C/C(=C\c3ccccc3)C(=O)/C(=C/c3ccccc3)C2)cc1 |  | 58.3 | 17 | 6.92 | 7.97 | 24.9 | 2.89 |  | 5.29 | 49.5 | 23.5 | 4.77
